Reference: the supplement of paper PMC11061612

Experiments:
Test in all cases: combination Emax (second highest fraction inhibited in the dose matrix, 72 h); higher = more inhibition; extreme values may be limits of the assay
[1] = tested on: SK-MG-1 (Low Grade Glioma)
In short: (§1)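 Bliss excess equals the observed combination effect minus the expected value EA + EB − EA·EB, where EA and EB are the effects of each agent alone. Combination Emax is the second-highest inhibition within the matrix. Inhibition was scaled from CellTiter-Glo 2.0 luminescence, with 0 set by vehicle wells and 1 by blank wells, after 72 hours of two-drug dosing of cells plated in 1536-well plates.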

[2] = tested on: NCI-H2141 (Small Cell Lung Carcinoma)
In short: as §1

[3] = tested on: CCK-81 (Colorectal Carcinoma)
In short: as §1

Hs-445 (Non-Cancerous) = tested on: Hs-445 (Non-Cancerous)
In short: as §1

U-2-OS (Osteosarcoma) = tested on: U-2-OS (Osteosarcoma)
In short: as §1

[4] = tested on: PANC-10-05 (Pancreatic Carcinoma)
In short: as §1

ARH-77 (Non-Cancerous) = tested on: ARH-77 (Non-Cancerous)
In short: as §1

[5] = tested on: NCI-H64 (Small Cell Lung Carcinoma)
In short: as §1

NY (Osteosarcoma) = tested on: NY (Osteosarcoma)
In short: as §1

GI-ME-N (Neuroblastoma) = tested on: GI-ME-N (Neuroblastoma)
In short: as §1

[6] = tested on: OS-RC-2 (Kidney Carcinoma)
In short: as §1

[7] = tested on: A549 (Lung Adenocarcinoma)
In short: as §1

LN-405 (Glioblastoma) = tested on: LN-405 (Glioblastoma)
In short: as §1

[8] = tested on: VCaP (Prostate Carcinoma)
In short: as §1

FU97 (Gastric Carcinoma) = tested on: FU97 (Gastric Carcinoma)
In short: as §1

[9] = tested on: SK-MES-1 (Squamous Cell Lung Carcinoma)
In short: as §1

[10] = tested on: COLO-824 (Breast Carcinoma)
In short: as §1

[11] = tested on: ECC10 (Gastric Carcinoma)
In short: as §1

[12] = tested on: CAPAN-2 (Pancreatic Carcinoma)
In short: as §1

[13] = tested on: NCI-H1693 (Lung Adenocarcinoma)
In short: as §1

SMILES | combination Emax [1] | combination Emax [2] | combination Emax [3] | combination Emax (Hs-445 (Non-Cancerous)) | combination Emax (U-2-OS (Osteosarcoma)) | combination Emax [4] | combination Emax (ARH-77 (Non-Cancerous)) | combination Emax [5] | combination Emax (NY (Osteosarcoma)) | combination Emax (GI-ME-N (Neuroblastoma)) | combination Emax [6] | combination Emax [7] | combination Emax (LN-405 (Glioblastoma)) | combination Emax [8] | combination Emax (FU97 (Gastric Carcinoma)) | combination Emax [9] | combination Emax [10] | combination Emax [11] | combination Emax [12] | combination Emax [13]
CC(=O)c1c(C)c2cnc(Nc3ccc(N4CCNCC4)cn3)nc2n(C2CCCC2)c1=O [Palbociclib] + Cn1cnc2c(F)c(Nc3ccc(Br)cc3Cl)c(C(=O)NOCCO)cc21 [Selumetinib] (first compound max 10 µM, 7x7, partner max 10 µM) | 0.344 | 0.139 | 0.477 | 0.262 | 0.601 | 0.521 | 0.61 | 0.19 | 0.194 | 0.245 | 0.235 | 0.764 | 0.103 | 0.159 | 0.377 | 0.645 | 0.345 | 0.539 | 0.356 | 0.38
COc1cccc(OCCCN)c1-c1cc(Nc2cnc(C#N)cn2)n[nH]1 [Prexasertib] + C=CCn1c(=O)c2cnc(Nc3ccc(N4CCN(C)CC4)cc3)nc2n1-c1cccc(C(C)(C)O)n1 [AZD1775] (first compound max 1 µM, partner max 1 µM) | 0.908 | 0.588 | 0.945 | 0.947 | 0.934 | 0.595 | 0.996 | 0.925 | 0.663 | 0.513 | 0.519 | 0.776 | 0.587 | 0.774 | 0.367 | 0.777 | 0.861 | 0.904 | 0.569 | 0.461
COc1cccc(OCCCN)c1-c1cc(Nc2cnc(C#N)cn2)n[nH]1 [Prexasertib] + CCc1c2c(nc3ccc(O)cc13)-c1cc3c(c(=O)n1C2)COC(=O)[C@]3(O)CC [SN-38] (first compound max 1 µM, 7x7, partner max 0.3 µM) | 0.982 | 0.881 | 0.835 | 1 | 0.871 | 0.829 | 1 | 0.95 | 0.935 | 0.529 | 0.431 | 0.796 | 0.669 | 0.748 | 0.423 | 0.953 | 1 | 1 | 0.495 | 0.925
COc1cccc(OCCCN)c1-c1cc(Nc2cnc(C#N)cn2)n[nH]1 [Prexasertib] + CN(C)CCCOc1ccc(-c2ccc3ncc4c(c3c2)n(C2CCOCC2)c(=O)n4C)cn1 [AZD0156] (first compound max 1 µM, 7x7, partner max 1 µM) | 0.843 | 0.568 | 0.927 | 0.97 | 0.943 | 0.4 | 1 | 0.787 | 0.62 | 0.529 | 0.498 | 0.536 | 0.516 | 0.741 | 0.386 | 0.77 | 0.785 | 0.671 | 0.592 | 0.398
COc1cccc(OCCCN)c1-c1cc(Nc2cnc(C#N)cn2)n[nH]1 [Prexasertib] + C[C@@H]1COCCN1C2=NC(=NC(=C2)C3(CC3)[S@](=N)(=O)C)C4=C5C=CNC5=NC=C4 [AZD6738] (first compound max 1 µM, 7x7, partner max 10 µM) | 0.802 | 0.573 | 0.929 | 0.951 | 0.894 | 0.46 | 1 | 0.835 | 0.637 | 0.563 | 0.483 | 0.864 | 0.553 | 0.718 | 0.308 | 0.842 | 0.796 | 0.712 | 0.513 | 0.389
COc1cccc(OCCCN)c1-c1cc(Nc2cnc(C#N)cn2)n[nH]1 [Prexasertib] + Cc1cc2ncnn2cc1Nc1ncc2c(n1)n(C1CCOCC1)c(=O)n2C [AZD7648] (first compound max 1 µM, 7x7, partner max 10 µM) | 0.826 | 0.57 | 0.903 | 0.954 | 0.913 | 0.522 | 0.994 | 0.846 | 0.674 | 0.563 | 0.469 | 0.63 | 0.445 | 0.729 | 0.367 | 0.804 | 0.783 | 0.671 | 0.593 | 0.483
COc1cccc(OCCCN)c1-c1cc(Nc2cnc(C#N)cn2)n[nH]1 [Prexasertib] + O=C(c1cc(Cc2n[nH]c(=O)c3ccccc23)ccc1F)N1CCN(C(=O)C2CC2)CC1 [Olaparib] (first compound max 1 µM, 7x7, partner max 10 µM) | 0.904 | 0.617 | 0.841 | 0.949 | 0.908 | 0.31 | 0.969 | 0.835 | 0.652 | 0.452 | 0.475 | 0.614 | 0.592 | 0.797 | 0.299 | 0.834 | 0.77 | 0.728 | 0.337 | 0.357
